Data set [1] concerns human hepatic cancer cell line (HuH-7). Nature of the data set: Growth inhibition of HuH-7 cells, sulforhodamine B method. The data set is classed as cell-based. The following applies: 5 days with test compound. On the procedure: (§1) Growth inhibition of a human breast cancer cell line (MDA-MB-468) was determined by the sulforhodamine B method based on the method of Skehan P. et al. (J Natl Cancer Inst. 1990 Jul. 4; 82(13): 1107-12). In the study, MDA-MB-468 cells were seeded on DMEM medium containing 10% fetal bovine serum in a 96-well microplate. After 24-h incubation at 37° C. in the presence of 5% carbon dioxide, the test compound was added and the cells were incubated for another 5 days. After incubation, a trichloroacetic acid solution was added to yield the final concentration of 10% and the cells were left to stand at 4° C. for 1 hour to fix. Then, the cells were washed with water to remove the medium and trichloroacetic acid and dried in the air. The dried cells were stored at 4° C. until they were stained with sulforhodamine B. To each well, 1% acetic acid solution containing 0.4% sulforhodamine B was added and left to stand for 20 to 30 minutes at room temperature. After discarding the supernatant, each well was washed with 1% acetic acid solution, and 10 mM Tris([…]) solution was added while stirring to elute the dye taken into the cells. Then, the optical density was determined at the measurement wavelength of 492 nm and the reference wavelength of 690 nm, and the difference was calculated. The cell growth activity in each well was defined as the value determined by subtracting the OD in the control well not containing cells (the difference in absorbance between 492 nm and 690 nm) from that in the test well.
(§2) The 50% inhibitory concentration (IC50 (nM)) of the test compound was determined by comparing the cell growth activity in the well containing the test compound with that of the control not containing the test compound.
The growth inhibition on a human hepatic cancer cell line (HuH-7) was also determined by the above method.

Data set [2] deals with human breast cancer cell line (MDA-MB-468). Nature of the data set: Growth inhibition of MDA-MB-468 cells, sulforhodamine B method. The data set is classed as cell-based. The following applies: 120 h, 5 days with test compound. The method, then:
as §1, §2

Drawing on US8722663B2, “Di-substituted pyridine derivatives as anticancers” (Otsuka Pharmaceutical Co., Ltd., priority 2010, dated 2014), this text covers IC50 and melting point for 19 molecules.

Counter-ions that a name gives are not always drawn.

Broadly, the IC50 is the midpoint of a concentration-inhibition curve. Higher therefore signals weaker potency in that assay. The molecule `Cc1ccc(OC/C=C/c2ccc(CN3CCN(C(=O)/C=C/c4cc(C)c(Oc5ccc(OCc6ccc(F)cc6)cn5)c(C)c4)CC3)cc2C)cc1` [Example 407, (2E)-3-[4-({5-[(4-fluorobenzyl)oxy]pyridin-2-yl}oxy)-3,5-dimethylphenyl]-1-(4-{3-methyl-4-[(1E)-3-(4-methylphenoxy)prop-1-en-1-yl]benzyl}piperazin-1-yl)prop-2-en-1-one] yielded an IC50 in data set [1] (Homo sapiens, 120 h) of less than 10 nM.
As a reminder, the melting point is the temperature of the solid-liquid transition. In the case of `Cc1cc(/C=C/C(=O)N2CCN(Cc3ccc(CCOc4ccc(F)cc4)cc3)CC2)cc(Cl)c1Oc1ccc(OCc2cccc(Cl)c2F)cn1.Cl` [Example 485, (E)-3-[3-Chloro-4-({5-[(3-chloro-2-fluorobenzyl)oxy]pyridin-2-yl}oxy)-5-methylphenyl]-1-(4-{4-[2-(4-fluorophenoxy)ethyl]benzyl}piperazin-1-yl)prop-2-en-1-one hydrochloride], the melting point is 228.9 to 229.4 °C. In data set [2], this molecule displayed an IC50 of less than 10 nM.
Consider `COc1ccc(CCOc2ccc(CN3CCN(C(=O)/C=C/c4cc(C)c(Oc5ccc(OCc6ccc(C(F)(F)F)cc6)cn5)c(Cl)c4)CC3)cc2)cc1` [Example 688, (E)-3-{3-Chloro-5-methyl-4-[(5-{[4-(trifluoromethyl)benzyl]oxy}pyridin-2-yl)oxy]phenyl}-1-(4-{4-[2-(4-methoxyphenyl)ethoxy]benzyl}piperazin-1-yl)prop-2-en-1-one hydrochloride], for which the IC50 in data set [1] (Homo sapiens, 120 h) is less than 10 nM.
Molecule `Cc1cc(/C=C/C(=O)N2CCN(Cc3ccc(COc4ccc(F)cc4)c(F)c3)CC2)cc(Cl)c1Oc1ccc(OCc2ccc(C#N)cc2)cn1.Cl` [Example 641, 4-{[(6-{2-Chloro-4-[(E)-3-(4-{3-fluoro-4-[(4-fluorophenoxy)methyl]benzyl}piperazin-1-yl)-3-oxoprop-1-en-1-yl]-6-methylphenoxy}pyridin-3-yl)oxy]methyl}benzonitrile hydrochloride] had a melting point of 218 to 220.5 °C. For the same molecule, the IC50 in data set [2] was less than 10 nM.
`C=Cc1ccc(CN2CCN(C(=O)/C=C/c3cc(C)c(Oc4ccc(OCc5ccccc5Cl)cn4)c(Cl)c3)CC2)cc1` [Example 391, (E)-3-[3-chloro-4-({5-[(2-chlorobenzyl)oxy]pyridin-2-yl}oxy)-5-methylphenyl]-1-[4-(4-ethenylbenzyl)-piperazin-1-yl]prop-2-en-1-one] came in with an IC50 in data set [1] (Homo sapiens, 120 h) of less than 10 nM.
Molecule `Cc1cc(/C=C/C(=O)N2CCN(Cc3ccc(COc4ccc(OC(C)C)cc4)c(F)c3)CC2)cc(Cl)c1Oc1ccc(OCc2ccc(C#N)cc2)cn1.Cl` [Example 640, 4-({[6-(2-Chloro-4-{(E)-3-[4-(3-fluoro-4-{[4-(propan-2-yloxy)phenoxy]methyl}benzyl)-piperazin-1-yl]-3-oxoprop-1-en-1-yl}-6-methylphenoxy)pyridin-3-yl]oxy}methyl)benzonitrile hydrochloride] showed a melting point of 141.8 to 141.9 °C. In data set [2], this molecule yielded an IC50 of less than 10 nM.
The like results for `Br.C/C(=C\C(=O)N1CCN(Cc2ccc(CCOc3ccc(C)cc3)cc2)CC1)c1cc(C)c(Oc2ccc(OCc3ccc(C)cc3)cn2)c(Cl)c1` [Example 708, (E)-3-[3-Chloro-5-methyl-4-({5-[(4-methylbenzyl)oxy]pyridin-2-yl}oxy)phenyl]-1-(4-{4-[2-(4-methylphenoxy)ethyl]benzyl}piperazin-1-yl)but-2-en-1-one hydrobromide] were, in that order, 156.5 to 158.2 °C and less than 10 nM.
The like results for `Cc1cc(/C=C/C(=O)N2CCN(Cc3ccc(Cl)cc3)CC2)cc(Cl)c1Oc1ccc(OCCc2ccc(Cl)cc2)cn1.Cl` [Example 765, (E)-1-[4-(4-Chlorobenzyl)piperazin-1-yl]-3-[3-chloro-4-({5-[2-(4-chlorophenyl)ethoxy]pyridin-2-yl}oxy)-5-methylphenyl]prop-2-en-1-one hydrochloride] were, in that order, 220 to 220.9 °C and less than 10 nM.
`C/C(=C\C(=O)N1CCN(Cc2ccc(CCOc3ccc(F)cc3)cc2)CC1)c1cc(C)c(Oc2ccc(OCc3ccc(C)cc3)cn2)c(Cl)c1.O=C(O)C(=O)O` [Example 746, (E)-3-[3-Chloro-5-methyl-4-({5-[(4-methylbenzyl)oxy]pyridin-2-yl}oxy)phenyl]-1-(4-{4-[2-(4-fluorophenoxy)ethyl]benzyl}piperazin-1-yl)but-2-en-1-one ethanedioate]: the melting point was 211.3 to 211.7 °C. Moreover, in data set [2], the IC50 was less than 10 nM.
In data set [1] (Homo sapiens, 120 h), `COc1ccc(OCCc2ccc(CN3CCN(C(=O)/C=C/c4cc(C)c(Oc5ccc(OCc6ccc(C#N)cc6)cn5)c(C)c4)CCO3)cc2)cc1` [Example 402, 4-{[(6-{4-[(E)-3-(2-{4-[2-(4-Methoxyphenoxy)ethyl]benzyl}-1,2,5-oxadiazepan-5-yl)-3-oxoprop-1-en-1-yl]-2,6-dimethylphenoxy}pyridin-3-yl)oxy]methyl}benzonitrile] had an IC50 of less than 10 nM.
The same measure, in the same setting: next, `CCOc1ccc(OCCOc2ccc(CN3CCN(C(=O)/C=C/c4cc(C)c(Oc5ccc(OCc6ccc(C)cc6)cn5)c(Cl)c4)CC3)cc2)cc1` [Example 315, (E)-3-[3-Chloro-5-methyl-4-({5-[(4-methylbenzyl)oxy]pyridin-2-yl}oxy)phenyl]-1-(4-{4-[2-(4-ethoxyphenoxy)ethoxy]benzyl}piperazin-1-yl)prop-2-en-1-one]: less than 10 nM.
`COc1ccc(OCCc2ccc(CN3CCN(C(=O)/C=C/c4cc(C)c(Oc5ccc(OCc6ccc(C)c(F)c6)cn5)c(Cl)c4)CC3)cc2)cc1` [Example 428, (E)-3-[3-Chloro-4-({5-[3-fluoro-4-methylbenzyl)oxy]pyridin-2-yl}oxy)-5-methylphenyl]-1-(4-{4-[2-(4-methoxyphenoxy)ethyl]benzyl}piperazin-1-yl)prop-2-en-1-one hydrochloride] gave an IC50 in data set [1] of less than 10 nM.
On to `Cc1cc(/C=C/C(=O)N2CCN(Cc3ccc(CCOCc4ccc(Cl)cc4)cc3)CC2)cc(C)c1Oc1ccc(OCc2ccncc2)cn1` [Example 384, (E)-1-[4-(4-{2-[(4-chlorobenzyl)oxy]ethyl}benzyl)piperazin-1-yl]-3-(3,5-dimethyl-4-{[5-(pyridin-4-ylmethoxy)pyridin-2-yl]oxy}phenyl)prop-2-en-1-one], for which the IC50 in data set [1] (Homo sapiens, 120 h) was less than 10 nM.
Still for that read-out and setting: the figure for `CC(C)c1ccc(OCCc2ccc(CN3CCN(C(=O)c4ccc5cc(Oc6ccc(OCc7cccc(F)c7F)cn6)ccc5c4)CC3)cc2)cc1` [Example 542, [6-({5-[(2,3-Difluorobenzyl)oxy]pyridin-2-yl}oxy)naphthalen-2-yl][4-(4-{2-[4-(propan-2-yl)phenoxy]ethyl}benzyl)piperazin-1-yl]methanone hydrochloride] is less than 10 nM.
In turn, `C/C(=C\c1cc(C)c(Oc2ccc(OCc3ccc(C)cc3)cn2)c(Cl)c1)C(=O)N1CCN(Cc2ccc(CCOc3ccc(C)cc3)cc2)CC1.Cl` [Example 411, (E)-3-[3-Chloro-5-methyl-4-({5-[(4-methylbenzyl)oxy]pyridin-2-yl}oxy)phenyl]-2-methyl-1-(4-{4-[2-(4-methylphenoxy)ethyl]benzyl}piperazin-1-yl)prop-2-en-1-one hydrochloride] came in with a melting point of 134.7 to 136.4 °C. Further, the IC50 in data set [2] was less than 10 nM.
The like results for `Cc1ccc(CN2CCN(C(=O)/C=C/c3cc(C)c(Oc4ccc(OCc5ccc(F)cc5)cn4)c(Cl)c3)CC2)cc1.Cl` [Example 779, (E)-3-[3-Chloro-4-({5-[(4-fluorobenzyl)oxy]pyridin-2-yl}oxy)-5-methylphenyl]-1-[4-(4-methylbenzyl)piperazin-1-yl]prop-2-en-1-one hydrochloride] were, in that order, 223.9 to 224.5 °C and less than 10 nM.
As to `Cc1ccc(CN2CCN(C(=O)/C=C/c3cc(C)c(Oc4ccc(OCc5ccc(Cl)cc5)cn4)c(Cl)c3)CC2)cc1.Cl` [Example 781, (E)-3-[3-Chloro-4-({5-[(4-chlorobenzyl)oxy]pyridin-2-yl}oxy)-5-methylphenyl]-1-[4-(4-methylbenzyl)piperazin-1-yl]prop-2-en-1-one hydrochloride], the melting point was 223.1 to 224 °C. The same molecule displayed an IC50 in data set [2] of less than 10 nM.
On to `Cc1cc(/C=C/C(=O)N2CCN(Cc3ccc(CCOc4ccc(Cl)cc4)c(F)c3)CC2)cc(C)c1Oc1ccc(OCc2ccc(C#N)cc2)cn1.Cl` [Example 614, 4-{[(6-{4-[(E)-3-(4-{4-[2-(4-Chlorophenoxy)ethyl]-3-fluorobenzyl}piperazin-1-yl)-3-oxoprop-1-en-1-yl]-2,6-dimethylphenoxy}pyridin-3-yl)oxy]methyl}benzonitrile hydrochloride], for which the melting point fell in the range of 240.5 to 243.5 °C. Besides, in data set [2], the IC50 is less than 10 nM.
The molecule `Cc1cc(/C=C/C(=O)N2CCN(Cc3ccc(CCCOc4ccc(F)cc4)cc3)CC2)cc(Cl)c1Oc1ccc(OCc2ccc(C#N)cc2)cn1.Cl` [Example 618, 4-{[(6-{2-Chloro-4-[(E)-3-(4-{4-[3-(4-fluorophenoxy)propyl]benzyl}piperazin-1-yl)-3-oxoprop-1-en-1-yl]-6-methylphenoxy}pyridin-3-yl)oxy]methyl}benzonitrile hydrochloride] gave a melting point of 166.2 to 166.7 °C. In data set [2], this molecule displayed an IC50 of less than 10 nM.
